Literature values as cited in patent US20230089681A1, “USE OF A COMBINATION OF SULFICANT COMPOUNDS WITH A LIQUID CARRIER AS A SELF EMULSIFYING DRUG DELIVERY SYSTEM” (priority 2021, published 2023).
Like-named read-outs stand apart in the source and are kept apart here.

For `COc1ccc2cc3[n+](cc2c1OC)CCc1cc2c(cc1-3)OCO2` [Berberine], the absorption (oral, in capsule form taken with water) is given as 0.306% and the absorption (traditional oral administration) is given as 0.36%.
